In US4616003A, “N^6 -dihydroxypropyladenosines” (Warner-Lambert Company, priority 1985, dated 1986):
Where two headings read alike, the source gives them in different places.

Assays:
adenosine A2 receptor = biological target: T1, adenosine A2 receptor (Rattus norvegicus, UniProt P30543); assay: Adenosine A2 receptor binding (RBA-2), displacement of [3H]NECA
T1 construct: Brains were thawed and then kept on ice while the striata were dissected out; tissue Pel-Freez (Rogers, Ark.); host or cells: rat striatum (Sprague-Dawley brains; Long-Evans gave essentially identical results)
T1 sequence (P30543 whole entry): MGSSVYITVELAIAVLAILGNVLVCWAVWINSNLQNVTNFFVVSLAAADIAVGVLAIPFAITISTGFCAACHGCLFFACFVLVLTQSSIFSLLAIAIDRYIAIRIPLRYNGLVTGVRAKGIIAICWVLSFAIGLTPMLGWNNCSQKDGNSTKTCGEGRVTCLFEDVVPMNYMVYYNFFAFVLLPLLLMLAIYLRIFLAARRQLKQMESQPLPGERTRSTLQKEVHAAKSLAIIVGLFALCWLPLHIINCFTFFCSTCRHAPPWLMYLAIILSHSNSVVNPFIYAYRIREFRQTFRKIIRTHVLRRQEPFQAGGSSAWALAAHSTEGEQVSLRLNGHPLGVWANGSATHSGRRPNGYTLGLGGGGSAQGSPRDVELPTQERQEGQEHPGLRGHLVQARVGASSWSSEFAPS
Procedure: Brains from 200-500 g mixed sex Sprague-Dawley rats were purchased from Pel-Freez (Rogers, Ark.). […] Brains were thawed and then kept on ice while the striata were dissected out. […] The suspension was centrifuged at 50,000 xg for ten minutes, the supernatant discarded, the pellet resuspended in 10 vol ice-cold Tris as above, recentrifuged, resuspended at 1 g/5 ml, and stored in plastic vials at -70° C. […] When needed, tissue was thawed at room temperature, disrupted in a Polytron, and kept on ice until used.
All incubations were for 60 minutes at 25° C. in 12×75 mm glass tubes containing 1 ml Tris with 5 mg original tissue weight of rat weight of rat striatal membranes, 4 nM [^3 H]-N-ethyl adenosine-5'-carboxamide ([^3 H]NECA), 50 nM N^6 -cyclopentyladenosine (to eliminate A1 receptor binding), 10 mM MgCl2, 0.1 units/ml of adenosine deaminase and 1% dimethylsulfoxide. N^6 -Cyclopentyladenosine was dissolved at 10 mM in 0.02N HCl and diluted in Tris. […] Test compounds were dissolved at 10 mM in dimethylsulfoxide on the same day as the experiment, and diluted in dimethylsulfoxide to 100× the final incubation concentration. […] [^3 H]NECA was diluted to 40 nM in Tris. The membrane suspension (5 mg/0.79 ml) contained sufficient MgCl2 and adenosine deaminase to give 10 mM and 0.1 units/ml, respectively, final concentration in the incubation. […] After all additions, the rack of tubes was vortexed, and the tubes were then incubated for 60 min at 25° C. in a shaking water bath. The rack of tubes was vortexed an additional time halfway through the incubation.
Incubations were terminated by filtration through 2.4 cm GF/B filters under reduced pressure. Each tube was filtered as follows: the contents of the tube were poured onto the filter, 4 ml of ice-cold Tris were added to the tube and the contents poured onto the filter, and the filter was washed twice with 4 ml of ice-cold Tris. The filtration was complete in about twelve seconds.
Nonspecific binding was defined as binding in the presence of 100 μM N^6 -cyclopentyladenosine, and specific binding was defined as total binding minus nonspecific binding. The IC50 was calculated by weighted nonlinear least squares curve-fitting to the mass-action equation. [formula] where Y is cpm bound
T is cpm total binding without drug
S is cpm specific binding without drug
D is the concentration of drug and
K is the IC50 of the drug
Weighting factors were calculated under the assumption that the standard deviation was proportional to the predicted value of Y. Nonspecific binding was treated as a very large (infinite) concentration of drug in the computer analysis.

Swiss-Webster male mice [1] = assay: Mouse Activity and Screen Test (MAST): inhibition of spontaneous locomotor activity; assay type: in vivo; conditions: 1 hour prior to testing
Procedure: Nine unfasted Swiss-Webster male mice weighing 20-30 g are equally divided into three groups for each drug dose to be tested. That is, data for each dose level was generated by three separate groups of three mice each. A minimum of three dose levels (10, 30, and 100 mg/kg) are tested for each drug. Treatments are administered intraperitoneally one hour prior to testing. All dosages are calculated as parent compound and given in volumes of 10 ml/kg. Compounds are dissolved or suspended in 0.2% Methocel. Control animals are injected with Methocel. Immediately following the screen test, the final phase of testing is initiated by placing each group of three mice in one actophotometer (Life Sciences, 22, 1067-1076, 1978). The actophotometer consists of a cylindrical chamber whose center is occupied by another cylinder which contains the illumination for six photocells located on the perimeter of the chamber. Six light-beam interruptions equal one count. Locomotor activity is recorded by computer at ten minute intervals for 60 minutes. Data: The data obtained from the screen test are expressed as percent of mice falling off the screen. Data derived from locomotor activity of drug treated mice are compared to the activity of vehicle treated animals and are expressed as percent inhibition of spontaneous locomotion. All percentages reported for inhibition of locomotion (LI) are based upon data accumulated for one hour. Both phases of testing are graded: A=60-100%; C=31-59%; and N=0-30%. An overall dose rating is obtained by the following criteria: […]

Swiss-Webster male mice [2] = assay: Mouse Activity and Screen Test (MAST): screen test failure; assay type: in vivo; conditions: 1 hour prior to testing
Procedure: Nine unfasted Swiss-Webster male mice weighing 20-30 g are equally divided into three groups for each drug dose to be tested. That is, data for each dose level was generated by three separate groups of three mice each. A minimum of three dose levels (10, 30, and 100 mg/kg) are tested for each drug. Treatments are administered intraperitoneally one hour prior to testing. All dosages are calculated as parent compound and given in volumes of 10 ml/kg. Compounds are dissolved or suspended in 0.2% Methocel. Control animals are injected with Methocel. Testing: A two part testing procedure is started one hour postinjection. First, the screen test (ST) is performed (see Pharmac. Biochem. Behav. 6, 351-353, 1977). Briefly this test consists of placing mice on individual wire screens which are then rotated 180 degrees at the start of a 60 second observation period. The number of mice falling off the inverted screen is recorded. Data: The data obtained from the screen test are expressed as percent of mice falling off the screen. Data derived from locomotor activity of drug treated mice are compared to the activity of vehicle treated animals and are expressed as percent inhibition of spontaneous locomotion. All percentages reported for inhibition of locomotion (LI) are based upon data accumulated for one hour. Both phases of testing are graded: A=60-100%; C=31-59%; and N=0-30%. An overall dose rating is obtained by the following criteria: […]

[3] = 4 nM [3H]NECA, 50 nM N6-cyclopentyladenosine, rat striatal membranes, read-out: RBA-2 (IC50, adenosine A2 receptor affinity)

IC50 (adenosine A2 receptor; [3]) [µM] | Compound | Inhibition of Mouse Locomotor Activity (Swiss-Webster male mice [1]; 0.1 mg/kg i.p.) [%] | Inhibition of Mouse Locomotor Activity (Swiss-Webster male mice [1]; 0.3 mg/kg i.p.) [%] | Inhibition of Mouse Locomotor Activity (Swiss-Webster male mice [1]; 1.0 mg/kg i.p.) [%] | Inhibition of Mouse Locomotor Activity (Swiss-Webster male mice [1]; 3.0 mg/kg i.p.) [%] | Inhibition of Mouse Locomotor Activity (Swiss-Webster male mice [1]; 10 mg/kg i.p.) [%] | Inhibition of Mouse Locomotor Activity (Swiss-Webster male mice [1]; 30 mg/kg i.p.) [%] | Inhibition of Mouse Locomotor Activity (Swiss-Webster male mice [1]; 100 mg/kg i.p.) [%] | Screen Test Failure (Swiss-Webster male mice [2]; 0.1 mg/kg i.p.) [%] | Screen Test Failure (Swiss-Webster male mice [2]; 0.3 mg/kg i.p.) [%] | Screen Test Failure (Swiss-Webster male mice [2]; 1.0 mg/kg i.p.) [%] | Screen Test Failure (Swiss-Webster male mice [2]; 3.0 mg/kg i.p.) [%] | Screen Test Failure (Swiss-Webster male mice [2]; 10 mg/kg i.p.) [%] | Screen Test Failure (Swiss-Webster male mice [2]; 30 mg/kg i.p.) [%] | Screen Test Failure (Swiss-Webster male mice [2]; 100 mg/kg i.p.) [%] | IC50 (adenosine A2 receptor) [µM] | Inhibition of Mouse Locomotor Activity (Swiss-Webster male mice [1]; 0.03 mg/kg i.p.) [%] | Screen Test Failure (Swiss-Webster male mice [2]; 0.03 mg/kg i.p.) [%]
 | OC[C@@H](O)CNc1ncnc2c1ncn2[C@@H]1O[C@H](CO)[C@@H](O)[C@H]1O [Example 3] | -18 | 0 | 92 | 97 | 97 | 100 |  | 0 | 0 | 88 | 100 | 100 | 100 |  | 20 | -19 | 0
24 | CC1(C)OCC(CNc2ncnc3c2ncn3[C@@H]2O[C@H](CO)[C@@H](O)[C@H]2O)O1 (stereo partly drawn) [Example 4, (R,S)-N^6-[2,3Dihydroxypropylisopropylidene]adenosine] |  | 6 | 27 | 23 | 96 | 93 | 99 |  | 0 | 0 | 0 | 66 | 99 | 99 |  |  | 
15 | CC1(C)OC[C@@H](CNc2ncnc3c2ncn3[C@@H]2O[C@H](CO)[C@@H](O)[C@H]2O)O1 [Example 5, (R)-N^6-[2,3-Dihydroxypropylisopropylidene]-adenosine] |  | 40 | 39 | 69 | 48 | 98 |  |  | 0 | 11 | 11 | 77 | 100 |  |  |  | 
75 | Nc1nc(NCC(O)CO)c2ncn([C@@H]3O[C@H](CO)[C@@H](O)[C@H]3O)c2n1 (stereo partly shown) [Example 8] |  | 56 | 98 | 98 | 99 | 100 | 99 |  | 0 | 88 | 99 | 99 | 99 | 99 |  |  | 

Compound | IC50 (adenosine A2 receptor; [3]) [µM] | Inhibition of Mouse Locomotor Activity (Swiss-Webster male mice [1]; 0.1 mg/kg i.p.) [%] | Inhibition of Mouse Locomotor Activity (Swiss-Webster male mice [1]; 0.3 mg/kg i.p.) [%] | Inhibition of Mouse Locomotor Activity (Swiss-Webster male mice [1]; 1.0 mg/kg i.p.) [%] | Inhibition of Mouse Locomotor Activity (Swiss-Webster male mice [1]; 3.0 mg/kg i.p.) [%] | Inhibition of Mouse Locomotor Activity (Swiss-Webster male mice [1]; 10 mg/kg i.p.) [%] | Inhibition of Mouse Locomotor Activity (Swiss-Webster male mice [1]; 30 mg/kg i.p.) [%] | Inhibition of Mouse Locomotor Activity (Swiss-Webster male mice [1]; 100 mg/kg i.p.) [%] | Screen Test Failure (Swiss-Webster male mice [2]; 0.1 mg/kg i.p.) [%] | Screen Test Failure (Swiss-Webster male mice [2]; 0.3 mg/kg i.p.) [%] | Screen Test Failure (Swiss-Webster male mice [2]; 1.0 mg/kg i.p.) [%] | Screen Test Failure (Swiss-Webster male mice [2]; 3.0 mg/kg i.p.) [%] | Screen Test Failure (Swiss-Webster male mice [2]; 10 mg/kg i.p.) [%] | Screen Test Failure (Swiss-Webster male mice [2]; 30 mg/kg i.p.) [%] | Screen Test Failure (Swiss-Webster male mice [2]; 100 mg/kg i.p.) [%] | IC50 (adenosine A2 receptor) [µM] | Inhibition of Mouse Locomotor Activity (Swiss-Webster male mice [1]; 0.03 mg/kg i.p.) [%] | Screen Test Failure (Swiss-Webster male mice [2]; 0.03 mg/kg i.p.) [%]
OCC(O)CNc1ncnc2c1ncn2[C@@H]1O[C@H](CO)[C@@H](O)[C@@H]1O (stereo partly drawn) [Example 1, (R,S)-N^6 [2,3-Dihydroxypropyl]adenosine] | 19 | 46 | 96 | 97 | 99 | 100 | 100 | 99 | 8 | 100 | 100 | 100 | 100 | 100 | 100 |  |  | 
